Laboratory results reported in PubChem BioAssay (NCI).
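GI50: concentration for 50% inhibition of growth. Definition used: TGI = concentration required for complete inhibition of growth.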

Experiments:
Test in all cases: NCI tumour cell line growth inhibition, 384-well format
786-0 renal = tested on: 786-0 renal
A498 renal = tested on: A498 renal
A549 NSCLC = tested on: A549 NSCLC
ACHN renal = tested on: ACHN renal
BT-549 breast = tested on: BT-549 breast
CAKI-1 renal = tested on: CAKI-1 renal
CCRF-CEM leukemia = tested on: CCRF-CEM leukemia
COLO 205 colon = tested on: COLO 205 colon
DU-145 prostate = tested on: DU-145 prostate
EKVX NSCLC = tested on: EKVX NSCLC
HCC-2998 colon = tested on: HCC-2998 colon
HCT-116 colon = tested on: HCT-116 colon
HCT-15 colon = tested on: HCT-15 colon
HL-60(TB) leukemia = tested on: HL-60(TB) leukemia
HOP-62 NSCLC = tested on: HOP-62 NSCLC
HOP-92 NSCLC = tested on: HOP-92 NSCLC
HS 578T breast = tested on: HS 578T breast
HT29 colon = tested on: HT29 colon
IGROV1 ovarian = tested on: IGROV1 ovarian
K-562 leukemia = tested on: K-562 leukemia
KM12 colon = tested on: KM12 colon
LOX IMVI melanoma = tested on: LOX IMVI melanoma
M14 melanoma = tested on: M14 melanoma
MALME-3M melanoma = tested on: MALME-3M melanoma
MCF7 breast = tested on: MCF7 breast
MDA-MB-231 breast = tested on: MDA-MB-231 breast
MDA-MB-435 melanoma = tested on: MDA-MB-435 melanoma
MDA-MB-468 breast = tested on: MDA-MB-468 breast
MOLT-4 leukemia = tested on: MOLT-4 leukemia
NCI-H226 lung = tested on: NCI-H226 lung
NCI-H23 lung = tested on: NCI-H23 lung
NCI-H322M lung = tested on: NCI-H322M lung
NCI-H460 NSCLC = tested on: NCI-H460 NSCLC
NCI-H522 lung = tested on: NCI-H522 lung
NCI/ADR-RES ovarian = tested on: NCI/ADR-RES ovarian
OVCAR-3 ovarian = tested on: OVCAR-3 ovarian
OVCAR-4 ovarian = tested on: OVCAR-4 ovarian
OVCAR-8 ovarian = tested on: OVCAR-8 ovarian
PC-3 prostate = tested on: PC-3 prostate
RPMI-8226 leukemia = tested on: RPMI-8226 leukemia
RXF 393 renal = tested on: RXF 393 renal
SF-268 CNS = tested on: SF-268 CNS
SF-295 CNS = tested on: SF-295 CNS
SF-539 CNS = tested on: SF-539 CNS
SK-MEL-28 melanoma = tested on: SK-MEL-28 melanoma
SK-MEL-5 melanoma = tested on: SK-MEL-5 melanoma
SK-OV-3 ovarian = tested on: SK-OV-3 ovarian
SN12C renal = tested on: SN12C renal
SNB-19 CNS = tested on: SNB-19 CNS
SNB-75 CNS = tested on: SNB-75 CNS
SR leukemia = tested on: SR leukemia
SW-620 colon = tested on: SW-620 colon
T-47D breast = tested on: T-47D breast
TK-10 renal = tested on: TK-10 renal
U251 glioblastoma = tested on: U251 glioblastoma
UACC-257 melanoma = tested on: UACC-257 melanoma
UACC-62 melanoma = tested on: UACC-62 melanoma
UO-31 renal = tested on: UO-31 renal

`CN(C)C(=O)[C@H](O)[C@H](Cc1ccccc1)NC(=O)c1cc2cc(Cl)ccc2[nH]1` was tested. Which GI50 ([…]-0 renal) did it give?
The GI50 was 20.5 µM.

What about the TGI (786-0 renal) of the same compound?
Its TGI is 51.1 µM.

What about the GI50 (A498 renal) of the same compound?
Its GI50 is 26.7 µM.

And the TGI (A498 renal)?
The TGI was 61 µM.

And the GI50 (A549 NSCLC)?
Its GI50 is 27.3 µM.

And the TGI (A549 NSCLC)?
The TGI was 77 µM.

What about the GI50 (ACHN renal) of the same compound?
Its GI50 is 28.4 µM.

And the TGI (ACHN renal)?
The TGI was 74.3 µM.

What about the GI50 (BT-549 breast) of the same compound?
The GI50 was 20.5 µM.

What about the TGI (BT-549 breast) of the same compound?
Its TGI is 47.8 µM.

And the GI50 (CAKI-1 renal)?
Its GI50 is 25.1 µM.

And the TGI (CAKI-1 renal)?
The TGI was 77.8 µM.

And the GI50 (CCRF-CEM leukemia)?
Its GI50 is 17.9 µM.

What about the TGI (CCRF-CEM leukemia) of the same compound?
The TGI was 32.7 µM.

And the GI50 (COLO 205 colon)?
Its GI50 is 41.3 µM.

What about the TGI (COLO 205 colon) of the same compound?
Its TGI is > 100 µM.

What about the GI50 (DU-145 prostate) of the same compound?
Its GI50 is 30.7 µM.

And the TGI (DU-145 prostate)?
The TGI was 91.7 µM.

And the GI50 (EKVX NSCLC)?
The GI50 was 32.7 µM.

What about the TGI (EKVX NSCLC) of the same compound?
Its TGI is 97.3 µM.

What about the GI50 (HCC-2998 colon) of the same compound?
The GI50 was 15.4 µM.

And the TGI (HCC-2998 colon)?
The TGI was 31.8 µM.

And the GI50 (HCT-116 colon)?
Its GI50 is 22 µM.

And the TGI (HCT-116 colon)?
Its TGI is 66.5 µM.

What about the GI50 (HCT-15 colon) of the same compound?
Its GI50 is 27.5 µM.

What about the TGI (HCT-15 colon) of the same compound?
Its TGI is 74.7 µM.

What about the GI50 (HL-60(TB) leukemia) of the same compound?
The GI50 was 16.6 µM.

And the TGI (HL-60(TB) leukemia)?
Its TGI is 30.5 µM.

And the GI50 (HOP-62 NSCLC)?
The GI50 was 22.6 µM.

What about the TGI (HOP-62 NSCLC) of the same compound?
The TGI was 51.7 µM.

What about the GI50 (HOP-92 NSCLC) of the same compound?
Its GI50 is 26.9 µM.

And the TGI (HOP-92 NSCLC)?
Its TGI is 65.8 µM.

What about the GI50 (HS 578T breast) of the same compound?
The GI50 was 25.6 µM.

What about the TGI (HS 578T breast) of the same compound?
Its TGI is 59.3 µM.

And the GI50 (HT29 colon)?
The GI50 was 21.8 µM.

And the TGI (HT29 colon)?
Its TGI is 49.1 µM.

And the GI50 (IGROV1 ovarian)?
Its GI50 is 25.8 µM.

What about the TGI (IGROV1 ovarian) of the same compound?
Its TGI is 64.8 µM.

What about the GI50 (K-562 leukemia) of the same compound?
Its GI50 is 20.2 µM.

And the TGI (K-562 leukemia)?
The TGI was 44.9 µM.

What about the GI50 (KM12 colon) of the same compound?
The GI50 was 20.8 µM.

What about the TGI (KM12 colon) of the same compound?
Its TGI is 50.9 µM.

What about the GI50 (LOX IMVI melanoma) of the same compound?
The GI50 was 20.3 µM.

What about the TGI (LOX IMVI melanoma) of the same compound?
The TGI was 36.1 µM.

And the GI50 (M14 melanoma)?
Its GI50 is 23.4 µM.

And the TGI (M14 melanoma)?
The TGI was 55.6 µM.

What about the GI50 (MALME-3M melanoma) of the same compound?
Its GI50 is 21.2 µM.

What about the TGI (MALME-3M melanoma) of the same compound?
The TGI was 55.4 µM.

What about the GI50 (MCF7 breast) of the same compound?
The GI50 was 17.8 µM.

And the TGI (MCF7 breast)?
The TGI was 43 µM.

And the GI50 (MDA-MB-231 breast)?
The GI50 was 27 µM.

And the TGI (MDA-MB-231 breast)?
The TGI was > 100 µM.

And the GI50 (MDA-MB-435 melanoma)?
Its GI50 is 38.3 µM.

What about the TGI (MDA-MB-435 melanoma) of the same compound?
Its TGI is > 100 µM.

And the GI50 (MDA-MB-468 breast)?
The GI50 was 19.1 µM.

What about the TGI (MDA-MB-468 breast) of the same compound?
Its TGI is 36.1 µM.

What about the GI50 (MOLT-4 leukemia) of the same compound?
The GI50 was 14.4 µM.

What about the TGI (MOLT-4 leukemia) of the same compound?
The TGI was 27.7 µM.

What about the GI50 (NCI-H226 lung) of the same compound?
The GI50 was 23.1 µM.

And the TGI (NCI-H226 lung)?
The TGI was 57.5 µM.

And the GI50 (NCI-H23 lung)?
The GI50 was 28.1 µM.

What about the TGI (NCI-H23 lung) of the same compound?
The TGI was 77.5 µM.

And the GI50 (NCI-H322M lung)?
Its GI50 is 28.1 µM.

What about the TGI (NCI-H322M lung) of the same compound?
The TGI was 67.7 µM.

What about the GI50 (NCI-H460 NSCLC) of the same compound?
The GI50 was 19.2 µM.

What about the TGI (NCI-H460 NSCLC) of the same compound?
The TGI was 36.2 µM.

And the GI50 (NCI-H522 lung)?
The GI50 was 22.6 µM.

And the TGI (NCI-H522 lung)?
The TGI was 58.2 µM.

And the GI50 (NCI/ADR-RES ovarian)?
Its GI50 is 27.3 µM.

What about the TGI (NCI/ADR-RES ovarian) of the same compound?
Its TGI is 70.6 µM.

And the GI50 (OVCAR-3 ovarian)?
Its GI50 is 16.5 µM.

What about the TGI (OVCAR-3 ovarian) of the same compound?
The TGI was 31.5 µM.

And the GI50 (OVCAR-4 ovarian)?
The GI50 was 32 µM.

And the TGI (OVCAR-4 ovarian)?
Its TGI is 89.9 µM.

What about the GI50 (OVCAR-8 ovarian) of the same compound?
The GI50 was 36.4 µM.

And the TGI (OVCAR-8 ovarian)?
The TGI was > 100 µM.

What about the GI50 (PC-3 prostate) of the same compound?
Its GI50 is 21.3 µM.

What about the TGI (PC-3 prostate) of the same compound?
The TGI was 46.7 µM.

What about the GI50 (RPMI-8226 leukemia) of the same compound?
The GI50 was 13.3 µM.

What about the TGI (RPMI-8226 leukemia) of the same compound?
Its TGI is 26.3 µM.

And the GI50 (RXF 393 renal)?
Its GI50 is 20.7 µM.

And the TGI (RXF 393 renal)?
The TGI was 54.8 µM.

What about the GI50 (SF-268 CNS) of the same compound?
Its GI50 is 22.2 µM.

And the TGI (SF-268 CNS)?
Its TGI is 50.2 µM.

And the GI50 (SF-295 CNS)?
Its GI50 is 21.8 µM.

What about the TGI (SF-295 CNS) of the same compound?
The TGI was 44.2 µM.

What about the GI50 (SF-539 CNS) of the same compound?
The GI50 was 28.3 µM.

What about the TGI (SF-539 CNS) of the same compound?
The TGI was 72.3 µM.

And the GI50 (SK-MEL-28 melanoma)?
Its GI50 is 31.2 µM.

And the TGI (SK-MEL-28 melanoma)?
The TGI was 88.4 µM.

And the GI50 (SK-MEL-5 melanoma)?
Its GI50 is 15.6 µM.

What about the TGI (SK-MEL-5 melanoma) of the same compound?
Its TGI is 29.4 µM.

And the GI50 (SK-OV-3 ovarian)?
The GI50 was 32.9 µM.

What about the TGI (SK-OV-3 ovarian) of the same compound?
The TGI was > 100 µM.

What about the GI50 (SN12C renal) of the same compound?
The GI50 was 25.9 µM.

What about the TGI (SN12C renal) of the same compound?
The TGI was 77 µM.

What about the GI50 (SNB-19 CNS) of the same compound?
Its GI50 is 34.8 µM.

And the TGI (SNB-19 CNS)?
Its TGI is > 100 µM.

What about the GI50 (SNB-75 CNS) of the same compound?
Its GI50 is 31.2 µM.

What about the TGI (SNB-75 CNS) of the same compound?
The TGI was > 100 µM.

What about the GI50 (SR leukemia) of the same compound?
The GI50 was 19.5 µM.

And the TGI (SR leukemia)?
The TGI was 33.7 µM.

What about the GI50 (SW-620 colon) of the same compound?
Its GI50 is 25.3 µM.

What about the TGI (SW-620 colon) of the same compound?
The TGI was 57.1 µM.

What about the GI50 (T-47D breast) of the same compound?
Its GI50 is 26.9 µM.

What about the TGI (T-47D breast) of the same compound?
The TGI was 99.6 µM.

And the GI50 (TK-10 renal)?
Its GI50 is 25.1 µM.

What about the TGI (TK-10 renal) of the same compound?
The TGI was 67.9 µM.

And the GI50 (U251 glioblastoma)?
Its GI50 is 32.7 µM.

And the TGI (U251 glioblastoma)?
The TGI was 96.8 µM.

What about the GI50 (UACC-257 melanoma) of the same compound?
Its GI50 is 20.5 µM.

What about the TGI (UACC-257 melanoma) of the same compound?
The TGI was 37 µM.

And the GI50 (UACC-62 melanoma)?
Its GI50 is 18.4 µM.

What about the TGI (UACC-62 melanoma) of the same compound?
Its TGI is 41 µM.

What about the GI50 (UO-31 renal) of the same compound?
Its GI50 is 31.1 µM.

And the TGI (UO-31 renal)?
Its TGI is 92 µM.
